According to patent US20250197407A1 (Jazz Pharmaceuticals Ireland Limited, priority 2022, published 2025):

What follows are compounds tested against SOS1/KRAS WT (Homo sapiens (Human), UniProt Q07889) (assay: SOS1/KRAS WT HTRF binding assay (FRET-based protein-protein interaction)). Conditions: inhibition of His6-SOS1 (aa564-1049, 40 nM) binding to GST-KRAS-WT (aa1-188, 40 nM); at least two independent replicates; read-out: SOS1/KRAS WT HTRF Binding assay pIC50 (converted).
In short: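 GST-KRAS WT (aa1-188, 40 nM) and His6-SOS1 exchange domain (aa564-1049, 40 nM) were incubated 60 min at room temperature with compound dose response in HEPES pH7.3 buffer with 10 mM EDTA and 100 mM KF. Anti-GST-Eu(K)/anti-6His-XL665 HTRF was read after 4 hr, and IC50 came from a four-parameter fit (≥2 replicates).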

Sequence of SOS1/KRAS WT (Q07889 564-1049): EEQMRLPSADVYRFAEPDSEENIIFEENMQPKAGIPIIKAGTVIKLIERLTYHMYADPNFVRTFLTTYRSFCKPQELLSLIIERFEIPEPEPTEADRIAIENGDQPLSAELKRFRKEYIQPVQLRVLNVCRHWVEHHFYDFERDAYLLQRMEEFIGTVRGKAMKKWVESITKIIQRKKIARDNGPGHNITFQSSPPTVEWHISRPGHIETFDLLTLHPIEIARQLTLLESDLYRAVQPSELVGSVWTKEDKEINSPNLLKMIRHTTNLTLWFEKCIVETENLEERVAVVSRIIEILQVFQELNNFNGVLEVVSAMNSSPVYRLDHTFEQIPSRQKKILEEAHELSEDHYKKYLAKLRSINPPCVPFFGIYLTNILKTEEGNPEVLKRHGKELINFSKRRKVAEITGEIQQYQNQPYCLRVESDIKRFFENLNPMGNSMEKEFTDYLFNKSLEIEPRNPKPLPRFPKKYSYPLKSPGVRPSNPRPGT

**Q.** With `CCc1nnc(N[C@H](C)c2cccc(C(F)(F)C(C)(C)O)c2F)c2cc3c(cc12)C(C)(OC)C(=O)N3C` (stereo partly drawn) [Compound 200, 5-ethyl-3-methoxy-1,3-dimethyl-8-[[(1R)-1-[3-(1,1-difluoro-2-hydroxy-2-methyl-propyl)-2-fluoro-phenyl]ethyl]amino]pyrrolo[2,3-g]phthalazin-2-one] as the compound, how does the IC50 read?
**A.** 13.2 nM

**Q.** `CCOC1(C)C(=O)N(C)c2cc3c(C)nnc(N[C@H](C)c4cccc(C(F)(F)CO)c4C)c3cc21` (stereo partly drawn) [Compound 199, 3-ethoxy-1,3,8-trimethyl-5-[[(1R)-1-[3-(1,1-difluoro-2-hydroxy-ethyl)-2-methyl-phenyl]ethyl]amino]pyrrolo[3,2-g]phthalazin-2-one] was tested. Which IC50 did it give?
**A.** 21.9 nM

**Q.** For `Cc1nnc(N[C@H](C)c2cccc(C(F)(F)F)c2F)c2cc3c(cc12)n(C)c(=O)n3C(C)C` [Compound 38, 3-isopropyl-1,8-dimethyl-5-[[(1R)-1-[2-fluoro-3-(trifluoromethyl)phenyl]ethyl]amino] imidazo[4,5-g]phthalazin-2-one], which IC50 is on record?
**A.** 7.59 nM

**Q.** How did the IC50 turn out when `CCn1c(=O)n(C)c2cc3c(C)nnc(N[C@H](C)c4cccc(C(F)(F)CO)c4F)c3cc21` [Compound 19, 3-ethyl-1,8-dimethyl-5-[[(1R)-1-[3-(1,1-difluoro-2-hydroxy-ethyl)-2-fluoro-phenyl]ethyl]amino]imidazo[4,5-g]phthalazin-2-one] was run?
**A.** 9.12 nM

**Q.** `Cc1c([C@@H](C)Nc2nnc(C)c3cc4c(cc23)n(C2CC2)c(=O)n4C)cccc1C(F)(F)F` [Compound 58] was tested. Which IC50 did it give?
**A.** 6.61 nM

**Q.** With `COCC1(C)C(=O)N(C)c2cc3c(N[C@H](C)c4cccc(C(F)(F)C(C)(C)O)c4F)nnc(C)c3cc21` (stereo partly drawn) [Compound 86, D8-[[(1R)-1-[3-(1,1-difluoro-2-hydroxy-2-methyl-propyl)-2-fluoro-phenyl]ethyl]amino]-3-(methoxymethyl)-1,3,5-trimethyl-pyrrolo[3,2-g]phthalazin-2-one] as the compound, how does the IC50 read?
**A.** 10.2 nM

**Q.** `COCC1(C)C(=O)N(C)c2cc3c(N[C@H](C)c4cccc(C(F)(F)CO)c4C)nnc(C)c3cc21` (stereo partly drawn) [Compound 105, 8-[[(1R)-1-[3-(1,1-difluoro-2-hydroxy-ethyl)-2-methyl-phenyl]ethyl]amino]-3-(methoxymethyl)-1,3,5-trimethyl-pyrrolo[3,2-g]phthalazin-2-one] was tested. Which IC50 did it give?
**A.** 10.7 nM

**Q.** Which IC50 does the source give for `CCOC1(C)C(=O)N(C2CC2)c2cc3c(N[C@H](C)c4cccc(C(F)(F)C(C)(C)O)c4)nnc(C)c3cc21` (stereo partly drawn) [Compound 165, 1-cyclopropyl-3-ethoxy-3,5-dimethyl-8-[[(1R)-1-[3-(1,1-difluoro-2-hydroxy-2-methyl-propyl)phenyl]ethyl]amino]pyrrolo [2,3-g]phthalazin-2-one] here?
**A.** 10 nM

**Q.** Which IC50 does the source give for `COC1(C)C(=O)N(C)c2cc3c(C)nnc(N[C@H](C)c4cccc(C(F)(F)CO)c4)c3cc21` (stereo partly drawn) [Compound 178, 3-methoxy-1,3,8-trimethyl-5-[[(1R)-1-[3-(1,1-difluoro-2-hydroxy-ethyl)phenyl]ethyl]amino]pyrrolo [3,2-g]phthalazin-2-one] here?
**A.** 16.6 nM

**Q.** Which IC50 does the source give for `COc1c([C@@H](C)Nc2nnc(C)c3cc4c(cc23)n(C)c(=O)n4C)cccc1C(F)(F)F` [Compound 55, 5-[[(1R)-1-[2-methoxy-3-(trifluoromethyl)phenyl]ethyl]amino]-1,3,8-trimethyl-imidazo[4,5-g]phthalazin-2-one] here?
**A.** 57.5 nM

**Q.** For `CCOC1(C)C(=O)N(C)c2cc3c(C)nnc(N[C@H](C)c4cccc(C(F)(F)C(C)(C)O)c4C)c3cc21` (stereo partly drawn) [Compound 185, 3-ethoxy-1,3,8-trimethyl-5-[[(1R)-1-[3-(1,1-difluoro-2-hydroxy-2-methyl-propyl)-2-methyl-phenyl]ethyl]amino]pyrrolo[3,2-g]phthalazin-2-one], which IC50 is on record?
**A.** 24.5 nM

**Q.** How did the IC50 turn out when `Cc1nnc(N[C@H](C)c2cccc(C(F)(F)C(C)(C)O)c2F)c2cc3c(cc12)C(C)(C)C(=O)N3C1CC1` [Compound 59, 1-cyclopropyl-3,3,5-trimethyl-8-[[(1R)-1-[3-(1,1-difluoro-2-hydroxy-2-methyl-propyl)-2-fluoro-phenyl]ethyl]amino]pyrrolo[2,3-g]phthalazin-2-one] was run?
**A.** 7.94 nM
